Results published in US20070042046A1, “Methods for the treatment of cancer” (priority 2003, published 2007).

Legend:
HeLa cells = assay: Live/Dead cell assay; conditions: 24 hours, chlorambucil 90 μg/ml
Procedure: Cells with formulated drug were collected at 24 hours after incubation, placed into sterile plastic tubes and centrifuged. The supernatants were aspirated out and the cell pellets were washed gently with copious amount of PBS and centrifuged to remove any excipient. The cell pellet was dislodged gently and incubated with 300 μl of Live/dead cell assay reagent and incubated for 45 minutes on a rocker with gentle shaking (20 shakes per minute). At the end of incubation the cells were spun down, washed twice with PBS, reconstituted with 1 ml of PBS and transferred into a plate to capture the images of Live/Dead cells using fluorescent microscope.
The Live/Dead cell assay was performed on HeLa cell cultures grown on collagen coated plated and treated with various forms of porous silicon (AN^+/SE, loaded/unloaded, pre-formulated/formulated).
The procedure was performed on adherent cells after the floating cells were washed off. […] Therefore, percentage of live and dead cells was calculated from the adherent cells stuck to the bottom of the wells. Each sample was run in triplicate wells and one microscopic field image from each well was captured and the live and dead cells were counted to get an average % of cytotoxicity.

[1] = Animal mortality and survival after intra-tumoural injection in tumour-bearing nude mice; format: in vivo; conditions: for animal mortality rate: intratumoural
Procedure: The following protocol was adopted: • 1. Culture of human cells and implantation of the tumour cells as solid tumours in nude mice: The carcinoma cell-line was cultured in RPMI and Ham's F-12 media respectively with 10% fetal calf serum in a CO2 incubator and subcultured every two to three days until growing to a number enough for implantation in animals. The cells were then implanted as solid tumors in nude mice]. The cells were collected in HBSS (Hanks balanced salt solution). One hundred microliters of cell suspension in HBSS (5×10^6 cells) was injected subcutaneously into right gluteal region of nude mice (female, 6 to 9 week old nude mice with average body weight of 25 g, housed in pathogen-free conditions) using a 25-gauge needle. • 2. Animals groups: Animals were randomly grouped into control 1 (injected with peanut oil), control 2 (injected with porous silicon without drug), free chlorambucil (drug injected without porous silicon directly into tumour or injected via intraperitoneal route) and chlorambucil impregnated porous silicon groups. Each group included 16 to 20 animals. • 3. Injection of chlorambucil impregnated porous silicon in transplanted tumours: On day 14 after implantation of tumours (diameter of the tumour about lcm), the chlorambucil impregnated formulation was applied to the centre of the tumours. • 4. Tumour volumetrics: The sizes of implanted tumours in nude mice was estimated every 3 days. The largest and smallest diameters were measured by a vernier caliper and tumour volumes estimated according the formula: V=½ ab^2, where a and b are largest and smallest tumour diameters respectively, and V is the tumour volume in cm^3.
The effects of intra-tumoural administered chlorambucil loaded porous silicon on the growth of the tumour was studied and compared with control and systemic therapy groups. The body weight of the animals was estimated by subtracting the tumour volume (cm3) from the total body weight (g) every 3 days. The survival time of each experimental animal was recorded. […]

O=C(O)CCCc1ccc(N(CCCl)CCCl)cc1 [chlorambucil, 4-[bis(2-chloroethyl)amino}benzenebutanoic acid]
dead cell percentage (cytotoxicity) (HeLa cells): ≥ 95% | animal mortality rate ([1]; 720 ug): 50% | animal mortality rate ([1]; 1500 ug (2×LD50)): 90% | LD50 ([1]; nude mice, free drug): 720 µg
